Here are results for 24 molecules from patent US20240287074A1, “SALTS AND CRYSTALS” (Kinoxis Therapeutics Pty Ltd, priority 2020, published 2024).

Structures are written as SMILES. In brackets after ≈: the same amount, converted by molar mass. Entries after “also recorded” stand apart in the source; their conditions may differ. Where a name gives a salt, the structure may show the parent alone.

Format in all cases: physicochemical
The nature of series [1]: Primary salt screen: XRPD pattern after drying and after 40° C./75% RH. As to conditions: for Post-Drying (XRPD pattern): oven at 40° C. for about 24 hours; for Post 40° C./75% RH (XRPD pattern): stability chamber at 40° C./75% RH for about 24 hours; for Comments (stability): salt screen summary. As for the experimental part:
The following procedure was used: • Approximately 30 mg of 1-methyl-1,4,5,10-tetrahydropyrazolo[3,4-b][1,5]benzodiazepine freebase was weighed into 5×1.5 mL glass vials. • 300 μL of selected solvent system was added to each vial to form a mobile slurry, and a beige slurry was observed. • 1.05 (or 0.525 for the hemi experiments) equivalents of acid counterion (see Table 1) was added to each sample and initial observations were recorded. • The samples were temperature cycled between ambient and 40° C. in 4-hour cycles for about 72 hours. • The samples were collected, and observations made. • Samples in which solids were observed were filtered via centrifugation and the solids were loaded onto a multi-well XRPD plate and analyzed by XRPD. • Samples in which no solids were observed were uncapped and left undisturbed to allow evaporation at ambient temperature.

Series [2] is described as follows: Dynamic / gravimetric vapour sorption (DVS/GVS) hygroscopicity. As for the experimental part: Approximately, 10-20 mg of sample was placed into a mesh vapour sorption balance pan and loaded into a DVS Intrinsic dynamic vapour sorption balance by Surface Measurement Systems. The sample was subjected to a ramping profile from 40-90% relative humidity (RH) at 10% increments, maintaining the sample at each step until a stable weight had been achieved (dm/dt 0.004%, minimum step length 30 minutes, maximum step length 500 minutes) at 25° C. After completion of the sorption cycle, the sample was dried using the same procedure to 0% RH and then a second sorption cycle back to 40% RH. Two cycles were performed. The weight change during the sorption/desorption cycles were plotted, allowing for the hygroscopic nature of the sample to be determined. XRPD analysis was then carried out on any solid retained.
Approximately 10-20 mg of sample was placed into a mesh vapour sorption balance pan and loaded into an IGASorp Moisture Sorption Analyser balance by Hiden Analytical. The sample was subjected to a ramping profile from 40-90% relative humidity (RH) at 10% increments, maintaining the sample at each step until a stable weight had been achieved (98% step completion, minimum step length 30 minutes, maximum step length 60 minutes) at 25° C. After completion of the sorption cycle, the sample was dried using the same procedure to 0% RH, and finally taken back to the starting point of 40% RH. Two cycles were performed. The weight change during the sorption/desorption cycles were plotted, allowing for the hygroscopic nature of the sample to be determined.

The nature of series [3]: 1-week stability studies (XRPD, HPLC). As for the experimental part: The isolated 1-methyl-1,4,5,10-tetrahydropyrazolo[3,4-b][1,5]benzodiazepine freebase was characterized by TG/DTA, DSC, DVS with post-DVS, XRPD, HPLC, ^1H NMR and LC-MS, as per the methods detailed above. The 1-methyl-1,4,5,10-tetrahydropyrazolo[3,4-b][1,5]benzodiazepine freebase was stored at 40° C./75% relative humidity (RH) for 1 week to determine the stability of the material at increased RH and to identify potential hydrate formation.
One-week stability studies were conducted on the freebase (example 1), phosphate form 1 (example 3) and L-tartrate form 1 (example 5) salts using the following procedures: • Approximately 20 mg of each form was weighed into 3×2 mL glass vials. • One vial for each form was stored under the following conditions for 1-week: • 1. Ambient temperature, light and humidity (unsealed vial) • 2. 40° C./75% RH (unsealed vial) • 3. 80° C. (sealed vial) • The samples were collected after 1-week and observations were made. • The solids were analyzed by XRPD and HPLC.

The nature of series [4]: Thermodynamic solubility in PBS buffer pH 7.4. As for the experimental part:
The thermodynamic solubility of freebase (example 1), phosphate form 1 (example 3) and L-tartrate form 1 (example 5) were assessed in phosphate buffered saline (PBS) buffer at pH 7.4 according to the following procedure: • Approximately 30 mg of each form was weighed into 2 mL glass vials. • 100 μL of buffer solution was added to each vial until partial dissolution was observed. • The observed slurries were agitated at ambient temperature for about 24 hours. • The samples were collected, and observations were recorded. • The samples were filtered via centrifugation. • The pH of the mother liquors were recorded. • The concentration of the mother liquors were recorded by HPLC.

`Cn1ncc2c1Nc1ccccc1NC2` [Napsylate pattern 2]: in series [1], the “Post-Drying (XRPD pattern)” value is given as “Pattern 2” and the “Post 40° C./75% RH (XRPD pattern)” value is “Pattern 2”.

For `Cn1ncc2c1Nc1ccccc1NC2` [Napadisylate pattern 2], in series [1], the “Post-Drying (XRPD pattern)” value was “Pattern 2” and the “Post 40° C./75% RH (XRPD pattern)” value was “Pattern 2”.

Take `Cn1ncc2c1Nc1ccccc1NC2` [Hydrobromide pattern 2]: in series [1], the “Post-Drying (XRPD pattern)” value is “Pattern 2” and the “Post 40° C./75% RH (XRPD pattern)” value is given as “Pattern 2”.

Turning to `Cn1ncc2c1Nc1ccccc1NC2` [Tosylate pattern 3], in series [1], the “Post-Drying (XRPD pattern)” value is on record as “Pattern 3” and the “Post 40° C./75% RH (XRPD pattern)” value was “Pattern 3”.

As to `Cn1ncc2c1Nc1ccccc1NC2` [Tosylate pattern 2], in series [1], the “Post-Drying (XRPD pattern)” value was “Pattern 2” and the “Post 40° C./75% RH (XRPD pattern)” value is reported as “Pattern 2”.

For the molecule `Cn1ncc2c1Nc1ccccc1NC2` [Esylate pattern 2], in series [1], the “Post-Drying (XRPD pattern)” value is “Pattern 2” and the “Post 40° C./75% RH (XRPD pattern)” value is given as “Pattern 2”.

With `Cn1ncc2c1Nc1ccccc1NC2` [Sulfate pattern 3], in series [1], the “Post-Drying (XRPD pattern)” value was “Pattern 3” and the “Post 40° C./75% RH (XRPD pattern)” value is given as “Pattern 3”.

Regarding `Cn1ncc2c1Nc1ccccc1NC2` [Tosylate pattern 1], in series [1], the “Post-Drying (XRPD pattern)” value is “Pattern 1”, the “Comments (stability)” value is listed as “Good” and the “Post 40° C./75% RH (XRPD pattern)” value is reported as “Pattern 1”.

With `Cn1ncc2c1Nc1ccccc1NC2` [Sulfate pattern 1], in series [1], the “Post-Drying (XRPD pattern)” value is recorded as “Pattern 1” and the “Post 40° C./75% RH (XRPD pattern)” value is recorded as “Pattern 4”.

Take `Cn1ncc2c1Nc1ccccc1NC2` [Napsylate pattern 1]: in series [1], the “Post-Drying (XRPD pattern)” value is “Pattern 1”, the “Comments (stability)” value was “Good” and the “Post 40° C./75% RH (XRPD pattern)” value is “Pattern 2”.

Take `Cn1ncc2c1Nc1ccccc1NC2` [Isethionate pattern 2]: in series [1], the “Post-Drying (XRPD pattern)” value is recorded as “Pattern 2” and the “Post 40° C./75% RH (XRPD pattern)” value was “Pattern 3”.

Turning to `Cn1ncc2c1Nc1ccccc1NC2` [Edisylate pattern 1], in series [1], the “Post-Drying (XRPD pattern)” value is listed as “Pattern 1”, the “Comments (stability)” value was “Good” and the “Post 40° C./75% RH (XRPD pattern)” value is “Pattern 2”.

For the molecule `Cn1ncc2c1Nc1ccccc1NC2` [Esylate pattern 1], in series [1], the “Post-Drying (XRPD pattern)” value is on record as “Pattern 1” and the “Post 40° C./75% RH (XRPD pattern)” value was “Pattern 2”.

Take `Cn1ncc2c1Nc1ccccc1NC2` [Isethionate pattern 1]: in series [1], the “Post-Drying (XRPD pattern)” value is reported as “Pattern 1” and the “Post 40° C./75% RH (XRPD pattern)” value was “Pattern 3”.

As for `Cn1ncc2c1Nc1ccccc1NC2` [Napadisylate pattern 1], in series [1], the “Post-Drying (XRPD pattern)” value is “Pattern 1”, the “Comments (stability)” value is “Good” and the “Post 40° C./75% RH (XRPD pattern)” value is on record as “Pattern 1”.

As for `Cn1ncc2c1Nc1ccccc1NC2` [Mesylate pattern 1], in series [1], the “Post-Drying (XRPD pattern)” value is given as “Pattern 1” and the “Post 40° C./75% RH (XRPD pattern)” value is on record as “Pattern 1/2”.

Consider `Cn1ncc2c1Nc1ccccc1NC2` [Mesylate pattern 2], for which, in series [1], the “Post-Drying (XRPD pattern)” value is on record as “Pattern 2” and the “Post 40° C./75% RH (XRPD pattern)” value was “Pattern 1”.

Regarding `Cn1ncc2c1Nc1ccccc1NC2` [Maleate pattern 1], in series [1], the “Post-Drying (XRPD pattern)” value is on record as “Pattern 1” and the “Post 40° C./75% RH (XRPD pattern)” value is given as “Pattern 1”.

For the molecule `Cn1ncc2c1Nc1ccccc1NC2` [Edisylate pattern 2], in series [1], the “Post-Drying (XRPD pattern)” value is “Pattern 2” and the “Post 40° C./75% RH (XRPD pattern)” value is listed as “Pattern 2”.

In the case of `Cn1ncc2c1Nc1ccccc1NC2` [Mesylate pattern 3], in series [1], the “Post-Drying (XRPD pattern)” value was “Pattern 3” and the “Post 40° C./75% RH (XRPD pattern)” value is “Deliquesced”.

Regarding `Cn1ncc2c1Nc1ccccc1NC2` [Sulfate pattern 2], in series [1], the “Post-Drying (XRPD pattern)” value is “Pattern 2” and the “Post 40° C./75% RH (XRPD pattern)” value was “Pattern 2”.

As for `Cn1ncc2c1Nc1ccccc1NC2` [Hydrobromide pattern 1], in series [1], the “Post-Drying (XRPD pattern)” value is reported as “Pattern 1”, the “Comments (stability)” value is “Good” and the “Post 40° C./75% RH (XRPD pattern)” value is “Pattern 1”.

Broadly, the solubility is the dissolved amount per volume that the medium holds. For `Cn1ncc2c1Nc1ccccc1NC2` [freebase, 1-Methyl-1,4,5,10-tetrahydropyrazolo[3,4-b][1,5]benzodiazepine], the “change in form by XRPD post-DVS analysis” value in series [2] was “No change in form”. For the same molecule, the “hygroscopicity by DVS” value in series [2] (above 70% RH) is on record as “hygroscopic”; in series [2] (between 0 and 70% RH), “non-hygroscopic”. For the same molecule, the DVS mass increase result in series [2] (between 0 and 70% RH) was “about 0.11%”; in series [2] (between 70 and 90% RH) it was “about 2.74%”. Moreover, in series [3] (1 week at 40° C./75% RH and 80° C.), the “changes in form or purity” value is recorded as “no changes in form or purity”. Besides, in series [3] (1 week under ambient conditions (temperature, light, humidity)), the “XRPD diffractogram after storage” value is “An additional peak was observed”. For the same molecule, in series [3] (40° C./75% RH for 1 week), the “changes in pattern/form by XRPD post-storage” value is “No significant changes in pattern; also recorded: no changes in form”. The “stability under ambient light” value in series [3] (conclusion of 1-week stability study) was “may be unstable under ambient light”. Besides, the “changes in purity by HPLC” value in series [3] (stored under ambient conditions) is listed as “did not show any significant changes in purity”. The molecule further yielded a solubility in series [4] (PBS buffer at pH 7.4, ambient temperature, about 24 hours, HPLC) of 300 µg/mL (≈ 1500 µM). Besides, in series [4] (mother liquor of PBS pH 7.4 slurry), the “pH (t = 24 h)” value was determined as 7.32.

Turning to `Cn1ncc2c1Nc1ccccc1NC2` [Besylate pattern 1], in series [1], the “Post-Drying (XRPD pattern)” value was “Pattern 1” and the “Post 40° C./75% RH (XRPD pattern)” value is given as “Pattern 1, 2”.
